Structures can show the parent of a compound that is named as a salt. Where two headings read alike, the source gives them in different places.

Results on 17 compounds are retold here after patent publication US8283465B2, “Triazolopyridine compound, and action thereof as prolyl hydroxylase inhibitor or erythropoietin production-inducing agent” (Japan Tobacco Inc., priority 2009, dated 2012).

The target in one assay is T1, human PHD2 (Homo sapiens, UniProt Q9GZT9).
T1 construct: made in house; host or cells: Sf9 insect cells (baculovirus, pVL1393 vector)
T1 sequence (Q9GZT9 whole entry): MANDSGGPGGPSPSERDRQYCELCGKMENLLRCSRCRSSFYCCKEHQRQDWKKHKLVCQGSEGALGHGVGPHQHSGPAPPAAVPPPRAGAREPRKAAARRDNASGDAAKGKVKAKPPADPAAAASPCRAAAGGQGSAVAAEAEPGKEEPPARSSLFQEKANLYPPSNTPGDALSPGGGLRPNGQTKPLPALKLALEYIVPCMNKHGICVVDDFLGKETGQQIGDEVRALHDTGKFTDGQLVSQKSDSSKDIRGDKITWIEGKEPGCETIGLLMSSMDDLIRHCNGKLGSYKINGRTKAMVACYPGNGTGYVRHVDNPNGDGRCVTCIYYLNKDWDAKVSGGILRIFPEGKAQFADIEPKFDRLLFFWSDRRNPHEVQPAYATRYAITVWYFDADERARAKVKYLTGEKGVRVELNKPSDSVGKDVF
Description: Measurement of human PHD inhibitory activity (TR-FRET, hydroxylation of HIF-1α partial peptide). Particulars: human PHD2 enzyme 1 nM, 25° C. 30 min, values consisting solely of numbers. It is filed as biochemical. In a few lines:
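FLAG-tagged human PHD2 from Sf9 cells (1 nM final) hydroxylates a biotinylated 19-residue HIF-1α peptide, 30 min at 25° C. After EDTA stop, hydroxyproline detected by TR-FRET using Eu/Xlent-labelled VBC complex; % inhibition relative to no-enzyme and no-compound wells.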
(TR-FRET usually uses a lanthanide donor and a delayed reading to cut background.)

Assay [1] deals with human EPO production, Hep3B cells. Description: Human EPO production activity in Hep3B cells (EPO-ELISA of culture supernatant). In kind it is cell-based. The conditions noted are these: for EC50: 24 hr incubation, values consisting solely of numbers, read-out: EC50 (μM) in vitro, human EPO production activity; for production activity (%) at 30 μM in vitro, human EPO: 24 hr, values containing %, relative to maximum production. In a few lines: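 Hep3B cells were dosed with compound 24 h after plating and incubated 24 h at 37° C. Secreted EPO in supernatant was measured by ELISA. Values are EC50, or activity (%) at 30 μM scaled between untreated and maximum production.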
In general terms: ELISA stands for enzyme-linked immunosorbent assay.

[2] abbreviates: read-out: IC50 (μM) in vitro, human PHD inhibitory activity.

The term IC50 denotes the point on the concentration scale where inhibition reaches its midpoint. The term EC50 denotes the concentration that produces a half-maximal response. For the compound `O=C(O)CNC(=O)c1c(O)cc(CCC2CCCC2)c2ncnn12` [Example 99, {[8-(2-cyclopentylethyl)-6-hydroxy[1,2,4]triazolo[1,5-a]pyridine-5-carbonyl]amino} acetic acid hydrochloride], the IC50 at human PHD2 (setting [2]) is 0.87 µM. Further, the EC50 in assay [1] (Homo sapiens) was 20.2 µM.

As for `O=C(O)CNC(=O)c1c(O)cc(CCc2ccccc2C(F)(F)F)c2ncnn12` [Example 100, ({6-hydroxy-8-[2-(2-trifluoromethyl phenyl)ethyl][1,2,4]triazolo[1,5-a]pyridine-5-carbonyl}amino) acetic acid hydrochloride], at human PHD2 (setting [2]), the IC50 turned out to be 0.82 µM. The EC50 in assay [1] (Homo sapiens) turned out to be 18 µM.

As to `Cl.O=C(O)CNC(=O)c1c(O)cc(CCc2cccc(C(F)(F)F)c2)c2ncnn12` [Example 101, ({6-hydroxy-8-[2-(3-trifluoromethyl phenyl)ethyl] [1,2,4]triazolo[1,5-a]pyridine-5-carbonyl}amino) acetic acid hydrochloride], the IC50 at human PHD2 (setting [2]) amounted to 0.37 µM. Moreover, the “production activity (%) at 30 μM in vitro, human EPO” value (“production activity (%) at 30 μM” below) in assay [1] is on record as 6%.

For the compound `O=C(O)CNC(=O)c1c(O)cc(CCc2ccc(C(F)(F)F)cc2)c2ncnn12` [Example 102, ({6-hydroxy-8-[2-(4-trifluoromethyl phenyl)ethyl] [1,2,4]triazolo[1,5-a]pyridine-5-carbonyl}amino) acetic acid hydrochloride], the concentration for half-maximal inhibition (IC50) on human PHD2 (setting [2]) was determined as 0.51 µM. Moreover, the concentration giving a half-maximal response (EC50) in assay [1] (Homo sapiens) came out at 16 µM.

Turning to `O=C(O)CNC(=O)c1c(O)cc(-c2cc(Cl)cc(C3CC3)c2)c2ncnn12` [Example 103, {[8-(3-chloro-5-cyclopropylphenyl)-6-hydroxy[1,2,4]triazolo[1,5-a]pyridine-5-carbonyl]amino} acetic acid hydrochloride], at human PHD2 (setting [2]), the 50% inhibitory concentration (IC50) was determined as 0.18 µM. The EC50 in assay [1] (Homo sapiens) worked out at 6.9 µM.

Consider `O=C(O)CNC(=O)c1c(O)cc(-c2cc(F)cc(C(F)(F)F)c2)c2ncnn12` [Example 104, {[8-(3-fluoro-5-trifluoromethyl-phenyl)-6-hydroxy[1,2,4]triazolo[1,5-a]pyridine-5-carbonyl]amino} acetic acid hydrochloride], for which the IC50 on human PHD2 (setting [2]) amounted to 0.19 µM. Further, in assay [1] (Homo sapiens), the EC50 stood at 6.3 µM.

As for `O=C(O)CNC(=O)c1c(O)cc(-c2cc(F)cc(Cl)c2)c2ncnn12` [Example 105, {[8-(3-chloro-5-fluorophenyl)-6-hydroxy[1,2,4]triazolo[1,5-a]pyridine-5-carbonyl]amino} acetic acid hydrochloride], the IC50 at human PHD2 (setting [2]) was determined as 0.1 µM. In addition, the EC50 in assay [1] (Homo sapiens) came to 5.9 µM.

Regarding `O=C(O)CNC(=O)c1c(O)cc(-c2ccc(F)c(C(F)(F)F)c2)c2ncnn12` [Example 106, {[8-(4-fluoro-3-trifluoromethyl-phenyl)-6-hydroxy[1,2,4]triazolo[1,5-a]pyridine-5-carbonyl]amino} acetic acid hydrochloride], at human PHD2 (setting [2]), the IC50 was 0.23 µM. The EC50 in assay [1] (Homo sapiens) came out at 6 µM.

Take `O=C(O)CNC(=O)c1c(O)cc(-c2ccc(Cl)cc2)c2ncnn12` [Example 108, {[8-(4-chlorophenyl)-6-hydroxy[1,2,4]triazolo[1,5-a]pyridine-5-carbonyl]amino} acetic acid]: the IC50 on human PHD2 (setting [2]) was found to be 0.16 µM. In assay [1] (Homo sapiens), the concentration for a half-maximal effect (EC50) came to 8.9 µM.

Take `O=C(O)CNC(=O)c1c(O)cc(CCc2cc(F)cc(F)c2)c2ncnn12` [Example 109, ({8-[2-(3,5-difluoro-phenyl)-ethyl]-6-hydroxy[1,2,4]triazolo[1,5-a]pyridine-5-carbonyl}amino) acetic acid hydrochloride]: at human PHD2 (setting [2]), the half-maximal inhibitory concentration (IC50) was found to be 0.17 µM. Besides, the EC50 in assay [1] (Homo sapiens) was found to be 13.7 µM.

Take `O=C(O)CNC(=O)c1c(O)cc(-c2cccc(C(F)(F)F)c2)c2ncnn12` [Example 110, {[6-hydroxy-8-(3-trifluoromethyl phenyl)[1,2,4]triazolo[1,5-a]pyridine-5-carbonyl]amino} acetic acid hydrochloride]: at human PHD2 (setting [2]), the IC50 was 0.15 µM. The EC50 in assay [1] (Homo sapiens) amounted to 6.5 µM.

In the case of `Cl.O=C(O)CNC(=O)c1c(O)c(-c2ccccc2)cn2c(-c3ccccc3)nnc12` [Example 111, [(7-hydroxy-3,6-diphenyl[1,2,4]triazolo[4,3-a]pyridine-8-carbonyl)amino] acetic acid hydrochloride], the IC50 on human PHD2 (setting [2]) was determined as 1.1 µM. Further, the “production activity (%) at 30 μM” value in assay [1] is given as 0%.

Regarding `Cc1nnc2c(C(=O)NCC(=O)O)c(O)c(-c3ccccc3)cn12.Cl` [Example 112, [(7-hydroxy-3-methyl-6-phenyl[1,2,4]triazolo[4,3-a]pyridine-8-carbonyl)amino] acetic acid hydrochloride], the IC50 on human PHD2 (setting [2]) was 3.09 µM. Further, the “production activity (%) at 30 μM” value in assay [1] came out at 0%.

On to `O=C(O)CNC(=O)c1c(O)ccn2c(-c3ccccc3)nnc12` [Example 113, [(7-hydroxy-3-phenyl[1,2,4]triazolo[4,3-a]pyridine-8-carbonyl)amino] acetic acid], for which the IC50 at human PHD2 (setting [2]) turned out to be 0.56 µM. For the same compound, the “production activity (%) at 30 μM” value in assay [1] came to 0%.

On to `Cl.O=C(O)CNC(=O)c1c(O)ccn2c(CCc3ccccc3)nnc12` [Example 114, [(7-hydroxy-3-phenethyl[1,2,4]triazolo[4,3-a]pyridine-8-carbonyl)amino] acetic acid hydrochloride], for which, at human PHD2 (setting [2]), the IC50 was 1.2 µM. Besides, the “production activity (%) at 30 μM” value in assay [1] is recorded as 0%.

On to `Cl.O=C(O)CNC(=O)c1c(O)ccn2c(CCC3CCCCC3)nnc12` [Example 115, {[3-(2-cyclohexylethyl)-7-hydroxy[1,2,4]triazolo[4,3-a]pyridine-8-carbonyl]amino} acetic acid hydrochloride], for which, at human PHD2 (setting [2]), the IC50 is 1.8 µM. Besides, in assay [1], the “production activity (%) at 30 μM” value worked out at 0%.

For the compound `O=C(O)CNC(=O)c1c(O)cc(CCc2ccccc2)n2ncnc12` [Example 116, [(7-hydroxy-5-phenethyl[1,2,4]triazolo[1,5-a]pyridine-8-carbonyl)amino] acetic acid], half-maximal inhibition against human PHD2 (IC50 (μM) in vitro, human PHD inhibitory activity) (IC50) was put at 0.18 µM. In addition, the half-maximal effective concentration (EC50) in assay [1] was determined as 5.6 µM.
